Laboratory results as given in patent US20260258066A1, “NOVEL RUTHENIUM COMPLEXES, METHOD OF THEIR SYNTHESIS, INTERMEDIATE COMPOUNDS USED IN THIS METHOD, METHOD OF THEIR SYNTHESIS AND THE USE OF NOVEL RUTHENIUM COMPLEXES IN OLEFIN METATHESIS REACTIONS” (UNIWERSYTET WARSZAWSKI, priority 2022, published 2026).

Assay: Test of complex solubility in nonpolar solvents (n-hexane)
Format: physicochemical
Settings: 5 mg catalyst, n-hexane added in portions, room temperature, magnetic stirring
Description: In a round-bottom flask equipped with a stirring bar, the catalyst (Ru-a, Ru-b, Ru-c, Ru-d, Ru-h, Ru-15, Ru-16 and Hov-II) was placed, in the amount of 5 mg of each. n-hexane was added to each of the flasks in portions, at room temperature, and the mixture was stirred using a magnetic stirrer. The Ru-a dissolved in 6 mL, and the Ru-h complex in 4 mL of the solvent. In the case of the Ru-15 complex, almost complete solubility was observed after adding 20 mL of n-hexane.

Cc1cc(C)c(N2CCN(c3c(C)cc(C)cc3C)[C]2=[Ru]([Cl])([Cl])=[CH]c2ccccc2OC(C)C)c(C)c1 [Hov-II]
Volume of n-hexane in which 5 mg of the complex dissolved: > 20 mL
